Test results taken from patent US20240100068A1, “METHODS COMPRISING ADMINISTRATION OF A GLUCOCORTICOID RECEPTOR AGONIST AND AN INHIBITOR OF CALCINEURIN” (Chengdu Anticancer Bioscience, Ltd., priority 2022, published 2024).
Like-named read-outs stand apart in the source and are kept apart here.

Assays:
T2MycNick cells = assay: Testing compounds for their ability of restoring contact inhibition (vacuolation, cell density); assay type: cell-based, murine; settings: for minimal effective concentration: T2MycNick cells grown beyond confluence, 7-14 days; for cell density reduction (in words) / vacuolation (in words): compound alone; for vacuolation (in words): up to 10 μM
Description: Exponentially growing MycNick cells were passaged into 24-well plates at a final confluence of 90% and were allowed to attach for 48 hours before being exposed to a cortisol analog in the presence or absence of a calcineurin inhibitor. After the initiation of treatment, the cells were allowed to grow beyond confluence for 7 days before being subjected to morphological analysis and cell density. An inverted tissue culture microscope (Leica) was used to document vacuoles in live cells. Cell density was evaluated under an EVOS FL Auto microscope (Thermo Fisher) after fixation of the treated cells with 4% paraformaldehyde (PFA) in the presence of detergent 0.5% Triton X-100 and subsequently staining of DNA with 5 μg/ml of Propidium Iodide (PI) in the presence of 5 μg/ml of Ribonuclease A from bovine pancreas (RNase A) (Sigma, Cat. # R6513-50MG).
Exponentially growing murine cells expressing Myc-Nick (T2MycNick cells) were passaged into 24-well plates at a final confluence of 20% and were allowed to attach overnight before being exposed to a test compound at a concentration of 10 μM. […] The cells were subjected to daily analysis of viability and morphology under an inverted tissue culture microscope or GE InCell Analyzer 2000. Cell density was documented after staining of DNA with PI 7-10 days after the initiation of treatment.

MycNick cells = assay: Combination treatment with Hydrocortisone: modulation of HC-induced vacuolation, cell density reduction and CIR effect; assay type: cell-based, murine; settings: for sensitization to induction of vacuolation elicited by Hydrocortisone: 10 days, FIG. 16: Cyclosporin A […], Hydrocortisone 0.3 μM; for Cell density reduction by Hydrocortisone / Vacuolation by Hydrocortisone: Combination treatment with Hydrocortisone for 7 days; for HC-triggered vacuolation in presence of the compound: added to HC
Description: Exponentially growing MycNick cells were passaged into 24-well plates at a final confluence of 90% and were allowed to attach for 48 hours before being exposed to a cortisol analog in the presence or absence of a calcineurin inhibitor. […] An inverted tissue culture microscope (Leica) was used to document vacuoles in live cells. Cell density was evaluated under an EVOS FL Auto microscope (Thermo Fisher) after fixation of the treated cells with 4% paraformaldehyde (PFA) in the presence of detergent 0.5% Triton X-100 and subsequently staining of DNA with 5 μg/ml of Propidium Iodide (PI) in the presence of 5 μg/ml of Ribonuclease A from bovine pancreas (RNase A) (Sigma, Cat. # R6513-50MG).
The threshold concentration that was used to elicit no less than 50% of reduction in the cell density was determined. So was the minimal effective concentration that could induce vacuolation to an extent that covered no less than 10% of a random field documented under a bright field microscope. Quantification of the area with vacuolation, multilayer zones or multilayer zones was performed with the Image J software. More than 10 random fields were chosen for quantification for each data point in each of two independent experiments.
A chemical library for enhancers of the CIR effect of HC in MycNick cells was screened.

[1] = Mus musculus, PI staining, read-out: Conc that reduces > 50% in the cell density
[2] = Mus musculus, vacuolation covering no less than 10% of a random field, read-out: Min. effective conc. that elicits vacuolation
[3] = PI staining, read-out: Conc that reduces > 50% in the cell density
[4] = vacuolation covering no less than 10% of a random field, read-out: Min. effective conc. that elicits vacuolation

C[C@]12C[C@H](O)[C@H]3[C@@H](CCC4=CC(=O)CC[C@@]43C)[C@@H]1CC[C@@H]2C(=O)CO [CI028, Corticosterone]
minimal effective concentration (T2MycNick cells; [1]): 2.5 µM | minimal effective concentration (T2MycNick cells; [2]): 0.625 µM

C#C[C@]1(O)CC[C@H]2[C@@H]3CCC4=CC(=O)CC[C@]4(C)[C@H]3CC[C@@]21C [CI032, Ethisterone]
minimal effective concentration (T2MycNick cells; [1]): 10 µM | minimal effective concentration (T2MycNick cells; [2]): > 10 µM | cell density reduction (in words) (T2MycNick cells): failed to elicit vacuolation or reduce cell density | vacuolation (in words) (T2MycNick cells): failed to elicit vacuolation

C#C[C@]1(OC(C)=O)CC[C@H]2[C@@H]3CCC4=C[C@@H](OC(C)=O)CC[C@@H]4[C@H]3CC[C@@]21C [CI030, Ethynodiol diacetate]
minimal effective concentration (T2MycNick cells; [1]): 5 µM | minimal effective concentration (T2MycNick cells; [2]): > 10 µM | cell density reduction (in words) (T2MycNick cells): failed to elicit vacuolation or reduce cell density | vacuolation (in words) (T2MycNick cells): failed to elicit vacuolation

C[C@]12C=CC(=O)C=C1CC[C@@H]1[C@@H]2C(=O)C[C@@]2(C)[C@H]1CC[C@]2(O)C(=O)CO [CI042, Prednisone]
minimal effective concentration (T2MycNick cells; [1]): 2.5 µM | minimal effective concentration (T2MycNick cells; [2]): > 10 µM

CC[C@@H]1/C=C(\C)C[C@H](C)C[C@H](OC)[C@H]2O[C@@](O)(C(=O)C(=O)N3CCCC[C@H]3C(=O)O[C@H](/C(C)=C/[C@@H]3CC[C@H](Cl)[C@H](OC)C3)[C@H](C)[C@@H](O)CC1=O)[C@H](C)C[C@@H]2OC [CI040, Pimecrolimus]
vacuolation (in words) (T2MycNick cells): did not elicit vacuolation | sensitization to induction of vacuolation elicited by Hydrocortisone (MycNick cells): sensitizes | Cell density reduction by Hydrocortisone (MycNick cells): Enhanced | Vacuolation by Hydrocortisone (MycNick cells): Enhanced

CC(=O)O[C@]1(C(C)=O)CC[C@H]2[C@@H]3C[C@H](C)C4=CC(=O)CC[C@]4(C)[C@H]3CC[C@@]21C [CI031, Medroxyprogesterone acetate]
minimal effective concentration (T2MycNick cells; [3]): 2.5 µM | minimal effective concentration (T2MycNick cells; [4]): 2.5 µM

Cn1c(=O)cc(N2CCC[C@@H](N)C2)n(Cc2ccccc2C#N)c1=O [alogliptin]
HC-triggered vacuolation in presence of the compound (MycNick cells): failed to inhibit

CC(=O)OCC(=O)[C@@]12OC(C)(C)O[C@@H]1C[C@H]1[C@@H]3C[C@H](F)C4=CC(=O)C=C[C@]4(C)[C@@]3(F)[C@@H](O)C[C@@]12C [CI048, Fluocinonide]
minimal effective concentration (T2MycNick cells; [1]): 2.5 µM | minimal effective concentration (T2MycNick cells; [2]): 0.625 µM

C[C@]12C=CC(=O)C=C1CC[C@H]1[C@@H]3C[C@@H](O)[C@](O)(C(=O)CO)[C@@]3(C)C[C@H](O)[C@@]12F [CI047, Triamcinolone]
minimal effective concentration (T2MycNick cells; [1]): 2.5 µM | minimal effective concentration (T2MycNick cells; [2]): 0.625 µM

C[C@@H]1C[C@H]2[C@@H]3CCC4=CC(=O)C=C[C@]4(C)[C@@]3(Cl)[C@@H](O)C[C@]2(C)[C@@]1(OC(=O)c1ccco1)C(=O)CCl [CI023, Mometasone Furoate]
minimal effective concentration (T2MycNick cells; [1]): 2.5 µM | minimal effective concentration (T2MycNick cells; [2]): 0.625 µM

CC(=O)[C@@]1(O)CC[C@H]2[C@@H]3C[C@H](C)C4=CC(=O)C=C[C@]4(C)[C@@]3(F)[C@@H](O)C[C@@]21C [CI043, Fluorometholone]
minimal effective concentration (T2MycNick cells; [1]): 2.5 µM | minimal effective concentration (T2MycNick cells; [2]): 0.625 µM

CC1(C)O[C@@H]2C[C@H]3[C@@H]4C[C@H](F)C5=CC(=O)C=C[C@]5(C)[C@@]4(F)[C@@H](O)C[C@]3(C)[C@]2(C(=O)CO)O1 [CI021, Fluocinolone Acetonide]
minimal effective concentration (T2MycNick cells; [1]): 2.5 µM | minimal effective concentration (T2MycNick cells; [2]): 0.625 µM

CC1(C)O[C@@H]2C[C@H]3[C@@H]4CCC5=CC(=O)C=C[C@]5(C)[C@H]4[C@@H](O)C[C@]3(C)[C@]2(C(=O)CO)O1 [CI020, Desonide]
minimal effective concentration (T2MycNick cells; [1]): 2.5 µM | minimal effective concentration (T2MycNick cells; [2]): 0.625 µM

CCC(=O)OCC(=O)[C@@]1(OC(=O)CC)[C@@H](C)C[C@H]2[C@@H]3CCC4=CC(=O)C=C[C@]4(C)[C@@]3(Cl)[C@@H](O)C[C@@]21C [CI019, Beclomethasone dipropionate]
minimal effective concentration (T2MycNick cells; [1]): 2.5 µM | minimal effective concentration (T2MycNick cells; [2]): 0.625 µM

C[C@@H]1C[C@H]2[C@@H]3CCC4=CC(=O)C=C[C@]4(C)[C@@]3(F)[C@@H](O)C[C@]2(C)[C@@]1(O)C(=O)COP(=O)([O-])[O-].[Na+].[Na+] [CI039, Dexamethasone 21-phosphate disodium salt]
minimal effective concentration (T2MycNick cells; [3]): 2.5 µM | minimal effective concentration (T2MycNick cells; [4]): 0.625 µM

C=CC[C@@H]1/C=C(\C)C[C@H](C)C[C@H](OC)[C@H]2O[C@@](O)(C(=O)C(=O)N3CCCC[C@H]3C(=O)O[C@H](/C(C)=C/[C@@H]3CC[C@@H](O)[C@H](OC)C3)[C@H](C)[C@@H](O)CC1=O)[C@H](C)C[C@@H]2OC [CI046, Tacrolimus]
vacuolation (in words) (T2MycNick cells): did not elicit vacuolation | sensitization to induction of vacuolation elicited by Hydrocortisone (MycNick cells): sensitizes | Cell density reduction by Hydrocortisone (MycNick cells): Enhanced | Vacuolation by Hydrocortisone (MycNick cells): Enhanced

CC1(C)O[C@@H]2C[C@H]3[C@@H]4CCC5=CC(=O)C=C[C@]5(C)[C@@]4(F)[C@@H](O)C[C@]3(C)[C@]2(C(=O)CO)O1 [CI041, Triamcinolone acetonide]
minimal effective concentration (T2MycNick cells; [1]): 2.5 µM | minimal effective concentration (T2MycNick cells; [2]): 0.625 µM

CC(=O)OCC(=O)[C@@]1(O)CC[C@H]2[C@@H]3CCC4=CC(=O)CC[C@]4(C)[C@H]3[C@@H](O)C[C@@]21C [HC003, Hydrocortisone 21-acetate]
minimal effective concentration (T2MycNick cells; [3]): 2 µM | minimal effective concentration (T2MycNick cells; [4]): >10 µM

CCCC(=O)O[C@]1(C(=O)CO)CC[C@H]2[C@@H]3CCC4=CC(=O)CC[C@]4(C)[C@H]3[C@@H](O)C[C@@]21C [HC004, Hydrocortisone 17-Butyrate]
minimal effective concentration (T2MycNick cells; [3]): 10 µM | minimal effective concentration (T2MycNick cells; [4]): >10 µM

CC#CCn1c(N2CCC[C@@H](N)C2)nc2c1c(=O)n(Cc1nc(C)c3ccccc3n1)c(=O)n2C [linagliptin]
HC-triggered vacuolation in presence of the compound (MycNick cells): failed to inhibit

CCC(=O)O[C@]1(C(=O)SCF)[C@H](C)C[C@H]2[C@@H]3C[C@H](F)C4=CC(=O)C=C[C@]4(C)[C@@]3(F)[C@@H](O)C[C@@]21C [CI022, Fluticasone propionate]
minimal effective concentration (T2MycNick cells; [1]): 2.5 µM | minimal effective concentration (T2MycNick cells; [2]): 0.625 µM

CC#C[C@]1(O)CC[C@H]2[C@@H]3CCC4=CC(=O)CCC4=C3[C@@H](c3ccc(N(C)C)cc3)C[C@@]21C [Mifepristone]
contact inhibition restoration (CIR) activity (T2MycNick cells; high-density cells): failed to elicit | CIR effect of HC in presence of antagonist (MycNick cells; 5 μM of Mifepristone): completely blocked

CC(=O)OCC(=O)[C@@]1(O)[C@H](C)C[C@H]2[C@@H]3CCC4=CC(=O)C=C[C@]4(C)[C@@]3(F)[C@@H](O)C[C@@]21C [HC005, Dexamethasone 21-acetate]
minimal effective concentration (T2MycNick cells; [3]): 10 µM | minimal effective concentration (T2MycNick cells; [4]): >10 µM

C[C@]12CCC(=O)C=C1CC[C@@H]1[C@@H]2CC[C@@]2(C)[C@H]1CC[C@]2(O)C(=O)CO [CI049, Cortodoxone]
minimal effective concentration (T2MycNick cells; [1]): 10 µM | minimal effective concentration (T2MycNick cells; [2]): 5 µM

CC[C@@H]1/C=C(\C)C[C@H](C)C[C@H](OC)[C@H]2O[C@@](O)(C(=O)C(=O)N3CCCC[C@H]3C(=O)O[C@H](/C(C)=C/[C@@H]3CC[C@@H](O)[C@H](OC)C3)[C@H](C)[C@@H](O)CC1=O)[C@H](C)C[C@@H]2OC [CI034, Ascomycin]
vacuolation (in words) (T2MycNick cells): did not elicit vacuolation | sensitization to induction of vacuolation elicited by Hydrocortisone (MycNick cells): sensitizes | Cell density reduction by Hydrocortisone (MycNick cells): Enhanced | Vacuolation by Hydrocortisone (MycNick cells): Enhanced

C[C@]12CCC3=C4CCC(=O)C=C4CC[C@H]3[C@@H]1CC[C@@]2(O)CC#N [CI033, Dienogest]
minimal effective concentration (T2MycNick cells; [1]): 10 µM | minimal effective concentration (T2MycNick cells; [2]): > 10 µM | cell density reduction (in words) (T2MycNick cells): failed to elicit vacuolation or reduce cell density | vacuolation (in words) (T2MycNick cells): failed to elicit vacuolation
